Experimental data reported in EP2794556B1, “BIS-(ARYL/HETEROARYL)-METHYLENE COMPOUNDS, PHARMACEUTICAL COMPOSITIONS CONTAINING SAME AND THEIR USE FOR TREATING CANCER” (Gleason, James L., priority 2011, dated 2013).

Legend:
VDR = biological target: T1, VDR (Homo sapiens, UniProt P11473); assay: VDR agonism by induction of CYP24 gene expression (RT/PCR); assay type: cell-based
T1 construct: endogenous in cells; host or cells: SCC25 human head and neck squamous carcinoma cells
T1 sequence (P11473 1-427): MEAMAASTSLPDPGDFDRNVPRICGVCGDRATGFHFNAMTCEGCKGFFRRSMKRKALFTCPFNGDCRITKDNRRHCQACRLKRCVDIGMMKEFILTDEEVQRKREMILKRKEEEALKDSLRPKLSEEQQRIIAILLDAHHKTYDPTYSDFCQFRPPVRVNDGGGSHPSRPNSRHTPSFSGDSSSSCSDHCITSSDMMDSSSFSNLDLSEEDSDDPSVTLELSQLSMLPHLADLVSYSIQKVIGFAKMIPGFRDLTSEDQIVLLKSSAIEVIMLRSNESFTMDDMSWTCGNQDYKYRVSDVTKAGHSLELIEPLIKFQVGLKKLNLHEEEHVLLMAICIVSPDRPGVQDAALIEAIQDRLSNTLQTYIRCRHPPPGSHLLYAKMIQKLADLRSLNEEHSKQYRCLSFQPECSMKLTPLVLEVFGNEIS
Method: Cell culture. Human head and neck squamous carcinoma cell lines SCC4 and SCC45 and mouse HNSCC line AT84 were purchased from American Type Culture Collection (Manassas, VA) and cultured under recommended conditions. Cells were split at 60-70% confluence, as follows: cells were washed with filtered PBS, split with a 5-10 min incubation with 1 ml Trypsin-EDTA (Invitrogen, Carlsbad, CA) in PBS, collected with medium. Following centrifugation, the supernatant was removed. Cell pellets were resuspended with DMEM-F12, and distributed on fresh media-containing dishes. For treatments, AT84 cells were split and 24h later medium was changed to DMEM + 10% charcoal-stripped FBS.
RNA isolation and RT/PCR analysis. […]. Proc. Nat. Acad. Sci. U.S.A. 105, 8250-55. and Lamblin, M.et al Bioorganic & Medicinal Chemistry (2010) 18:4119-4137. After treatment, cells were washed with PBS, homogenized with 1ml TRIzol Reagent (Invitrogen, Carlsbad, CA), kept at room temperature for 2-5 min, collected and kept at -80 °C for at least 1h. After, thawing 0.2 ml chloroform was added. After vigorous mixing and storing for 10min, mixtures were centrifuged (10,000rpm, 15 min, 4 °C) and the upper transparent layer was transferred to a new tube. 0.5 ml isopropanol was added and the new solution was mixed. After centrifuging at 4 °C, the supernatant was discarded and 1ml of 75% ethanol was added. After centrifuging and discarding the supernatant, the pellet was air-dried for 5-10 min, and then dissolved in ddH2O. RNA concentrations were measured using a spectrophotometer, and 1-3µg of RNA were loaded for reverse transcriptase reactions (total volume: 20 µl). 80µl of ddH2O was added to the RT-product, and 1.5µl of that was used as template for the PCR reaction. Reverse transcriptase (Super Script II) was purchased from Invitrogen (Carlsbad, CA). DNA polymerase and dNTP's were ordered from Fermentas (Glen Burnie, MD).
Test compounds (10 µM) were first screened for VDR agonism by analysis of induction of CYP24 gene expression in 1,25D-sensitive human SCC25 cells. […]. Consistent with binding to the VDR, induction of CYP24 by compound JF-B01, compound JF-B53 or compound 16 (JF-B54) was blocked (Fig. 1c). […]

RPMI-8226 = assay: NCI 60 cell panel
EKVX = assay: NCI 60 cell panel
HOP-62 = assay: NCI 60 cell panel
NCI-H460 = assay: NCI 60 cell panel
U251 = assay: NCI 60 cell panel
M14 = assay: NCI 60 cell panel
MDA-MB-435 = assay: NCI 60 cell panel
UACC-257 = assay: NCI 60 cell panel
IGROVI = assay: NCI 60 cell panel
OVCAR-3 = assay: NCI 60 cell panel
OVCAR-5 = assay: NCI 60 cell panel
OVCAR-8 = assay: NCI 60 cell panel
SK-OV-3 = assay: NCI 60 cell panel
HS 578T = assay: NCI 60 cell panel
BT-549 = assay: NCI 60 cell panel
SCC25 cells = assay: EdU cell growth assay
Method: EdU cell growth assay. Click-iT EdU Alexa Fluor high-throughput imaging (HCS) assay for cell proliferation. HCS assays were performed on AT84 mouse squamous carcinoma cell line (ATCC) following the manufacturer's instruction (Molecular Probes, Invitrogen). […] All samples were in triplicate.

Question: `CCC(CC)(c1ccc(OCC(=O)NO)c(C)c1)c1ccc(OCC(O)C(C)(C)C)c(C)c1` (racemic) [JF-B01, N-Hydroxy-2-(4-(3-(4-(2-hydroxy-3,3-dimethylbutoxy)-3-methylphenyl)pentan-3-yl)-2-methylphenoxy)acetamide] was tested. Which “induction of CYP24 by the compound was blocked” value (VDR; Fig. 1c, blocking agent not given) did it give?
Answer: Its value is “blocked”.

Question: And the “VDR agonist potency compared with that of LG190178” value (VDR; SCC25 cells, Fig. 1b)?
Answer: Its value is “equal to or greater”.

Question: And the “VDR agonist potency, fold lower than that of 1,25D” value (VDR; SCC25 cells, Fig. 1b)?
Answer: The value was “approximately 10 fold”.

Question: What about the “VDR agonist activity and potency, induction of CYP24 gene expression” value (VDR; SCC25 cells, Fig. 1b, 1d) of the same compound?
Answer: Its value is “efficacious agonist”.

Question: And the “VDR agonism by induction of CYP24 gene expression” value (VDR; screen at 10 µM, SCC25 cells, Fig. 1a)?
Answer: Its value is “agonist activity”.

Question: And the GI50 (RPMI-8226; Homo sapiens, RPMI-8226)?
Answer: Its GI50 is 1.12 µM.

Question: What about the CC50 (RPMI-8226; Homo sapiens, RPMI-8226, read-out: LC50) of the same compound?
Answer: The CC50 was 82.5 µM.

Question: And the TGI (RPMI-8226; Leukemia, RPMI-8226)?
Answer: The TGI was 8.68E-6.

Question: And the GI50 (EKVX; Homo sapiens)?
Answer: Its GI50 is 2.87 µM.

Question: And the CC50 (EKVX; Homo sapiens, read-out: LC50)?
Answer: The CC50 was 35.3 µM.

Question: And the TGI (EKVX; Non-Small Cell Lung Cancer)?
Answer: Its TGI is 1.24E-5.

Question: What about the GI50 (HOP-62; Homo sapiens, HOP-62) of the same compound?
Answer: Its GI50 is 3.69 µM.

Question: What about the CC50 (HOP-62; Homo sapiens, HOP-62, read-out: LC50) of the same compound?
Answer: Its CC50 is 38.3 µM.

Question: And the TGI (HOP-62; Non-Small Cell Lung Cancer, HOP-62)?
Answer: The TGI was 1.47E-5.

Question: What about the GI50 (NCI-H460; Homo sapiens, NCI-H460) of the same compound?
Answer: Its GI50 is 1.6 µM.

Question: What about the CC50 (NCI-H460; Homo sapiens, NCI-H460, read-out: LC50) of the same compound?
Answer: Its CC50 is 9.51 µM.

Question: What about the TGI (NCI-H460; Non-Small Cell Lung Cancer, NCI-H460) of the same compound?
Answer: Its TGI is 3.90E-6.

Question: And the TGI (U251; CNS Cancer, U251)?
Answer: Its TGI is 1.23E-5.

Question: And the GI50 (U251; Homo sapiens, U-251)?
Answer: Its GI50 is 2.34 µM.

Question: What about the CC50 (U251; Homo sapiens, U-251, read-out: LC50) of the same compound?
Answer: Its CC50 is 40 µM.

Question: What about the GI50 (M14; Homo sapiens, M14) of the same compound?
Answer: Its GI50 is 2.3 µM.

Question: What about the CC50 (M14; Homo sapiens, M14, read-out: LC50) of the same compound?
Answer: Its CC50 is 16.5 µM.

Question: And the TGI (M14; Melanoma, M14)?
Answer: Its TGI is 5.33E-6.

Question: And the GI50 (MDA-MB-435; Homo sapiens, MDA-MB-435)?
Answer: The GI50 was 2.08 µM.

Question: What about the CC50 (MDA-MB-435; Homo sapiens, MDA-MB-435, read-out: LC50) of the same compound?
Answer: The CC50 was 16.7 µM.

Question: What about the TGI (MDA-MB-435; Melanoma, MDA-MB-435) of the same compound?
Answer: Its TGI is 5.20E-6.

Question: What about the GI50 (UACC-257; Homo sapiens, UACC-257) of the same compound?
Answer: Its GI50 is 3.34 µM.

Question: What about the CC50 (UACC-257; Homo sapiens, UACC-257, read-out: LC50) of the same compound?
Answer: The CC50 was 38.8 µM.

Question: What about the TGI (UACC-257; Melanoma, UACC-257) of the same compound?
Answer: The TGI was 1.27E-5.

Question: What about the GI50 (IGROVI; Homo sapiens) of the same compound?
Answer: Its GI50 is 2.08 µM.

Question: What about the CC50 (IGROVI; Homo sapiens, read-out: LC50) of the same compound?
Answer: The CC50 was 19.2 µM.

Question: What about the TGI (IGROVI; Ovarian Cancer, IGROVI) of the same compound?
Answer: Its TGI is 5.25E-6.

Question: What about the GI50 (OVCAR-3; Homo sapiens, OVCAR-3) of the same compound?
Answer: The GI50 was 1.73 µM.

Question: What about the CC50 (OVCAR-3; Homo sapiens, OVCAR-3, read-out: LC50) of the same compound?
Answer: The CC50 was 21.6 µM.

Question: And the TGI (OVCAR-3; Ovarian Cancer, OVCAR-3)?
Answer: Its TGI is 5.59E-6.

Question: What about the GI50 (OVCAR-5; Homo sapiens, OVCAR-5) of the same compound?
Answer: The GI50 was 12.9 µM.

Question: What about the CC50 (OVCAR-5; Homo sapiens, OVCAR-5, read-out: LC50) of the same compound?
Answer: Its CC50 is 50.6 µM.

Question: And the TGI (OVCAR-5; Ovarian Cancer, OVCAR-5)?
Answer: Its TGI is 2.56E-5.

Question: What about the GI50 (OVCAR-8; Homo sapiens, OVCAR-8) of the same compound?
Answer: The GI50 was 6.27 µM.

Question: And the CC50 (OVCAR-8; Homo sapiens, OVCAR-8, read-out: LC50)?
Answer: The CC50 was 51.1 µM.

Question: What about the TGI (OVCAR-8; Ovarian Cancer, OVCAR-8) of the same compound?
Answer: The TGI was 2.03E-5.

Question: What about the GI50 (SK-OV-3; Homo sapiens, SK-OV-3) of the same compound?
Answer: Its GI50 is 12.2 µM.

Question: What about the CC50 (SK-OV-3; Homo sapiens, SK-OV-3, read-out: LC50) of the same compound?
Answer: Its CC50 is 49.6 µM.

Question: What about the TGI (SK-OV-3; Ovarian Cancer, SK-OV-3) of the same compound?
Answer: The TGI was 2.46E-5.

Question: What about the TGI (HS 578T; Breast Cancer, HS 578T) of the same compound?
Answer: Its TGI is 2.65E-5.

Question: And the GI50 (HS 578T; Homo sapiens, Hs-578T)?
Answer: The GI50 was 8.8 µM.

Question: What about the CC50 (HS 578T; Homo sapiens, Hs-578T, read-out: LC50) of the same compound?
Answer: Its CC50 is 72.5 µM.

Question: What about the TGI (BT-549; Breast Cancer, BT-549) of the same compound?
Answer: Its TGI is 7.74E-6.

Question: What about the GI50 (BT-549; Homo sapiens, BT-549) of the same compound?
Answer: Its GI50 is 2.03 µM.

Question: What about the CC50 (BT-549; Homo sapiens, BT-549, read-out: LC50) of the same compound?
Answer: Its CC50 is 28.5 µM.

Question: And the “antiproliferative potency, fold less potent than 1,25D” value (SCC25 cells)?
Answer: The value was 10 fold.

Question: And the “EdU incorporation at higher concentrations” value (SCC25 cells; higher concentrations)?
Answer: The value was “completely abolished EdU incorporation”.
